Reference: ChEMBL document CHEMBL1201862, “PubChem BioAssay data set” (2004)
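All cell lines were grown in 96-well plates and treated with compound for 48 hours. GI50 marks 50% less growth.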 Active and inactive are the calls of the source. Cut-off read from the data, not from the text of the source: active = GI50 up to about 1.1 µM and inactive = higher.

Key:
Experiment in all cases: inhibition of tumour cell growth, NCI panel, 48 h
SK-MEL-2 = tested on: SK-MEL-2
OVCAR-8 = tested on: OVCAR-8
Hs-578T = tested on: Hs-578T
SF-295 = tested on: SF-295
NCI-H226 = tested on: NCI-H226
SK-MEL-28 = tested on: SK-MEL-28
OVCAR-5 = tested on: OVCAR-5
DU-145 = tested on: DU-145
COLO 205 = tested on: COLO 205
MDA-MB-435 = tested on: MDA-MB-435
CCRF-CEM = tested on: CCRF-CEM
PC-3 = tested on: PC-3
HCT-116 = tested on: HCT-116
OVCAR-4 = tested on: OVCAR-4
SW-620 = tested on: SW-620
HCT-15 = tested on: HCT-15
SR = tested on: SR
RXF 393 = tested on: RXF 393
HOP-62 = tested on: HOP-62
RPMI-8226 = tested on: RPMI-8226

SMILES | GI50 (SK-MEL-2) | GI50 (OVCAR-8) | GI50 (Hs-578T) | GI50 (SF-295) | GI50 (NCI-H226) | GI50 (SK-MEL-28) | GI50 (OVCAR-5) | GI50 (DU-145) | GI50 (COLO 205) | GI50 (MDA-MB-435) | GI50 (CCRF-CEM) | GI50 (PC-3) | GI50 (HCT-116) | GI50 (OVCAR-4) | GI50 (SW-620) | GI50 (HCT-15) [µM] | GI50 (SR) | GI50 (RXF 393) | GI50 (HOP-62) | GI50 (RPMI-8226)
CCOC(=O)C(SCCO)C(C(=O)OCC)n1cc(C)c(=O)[nH]c1=O (stereo not given) | 19.6 µM (inactive) | 14.1 µM (inactive) | 63.4 µM (inactive) | > 79.4 µM (inactive) | > 32.7 µM (inactive) | 19.4 µM (inactive) | 15 µM (inactive) | > 74.6 µM (inactive) | 10 µM (inactive) | 14.3 µM (inactive) | 2.42 µM (inactive) | 13.9 µM (inactive) | 7.41 µM (inactive) | 23 µM (inactive) | 5.96 µM (inactive) | 4.41 | 6.92 µM (inactive) | 17 µM (inactive) | > 61.2 µM (inactive) | 7.89 µM (inactive)
Cc1ccc(NC(c2ccccc2)P(=O)(c2ccccc2)c2ccccc2)cc1 (stereo not given) | 39.6 µM (inactive) | > 100 µM (inactive) | 44.7 µM (inactive) | 29.9 µM (inactive) | > 100 µM (inactive) | > 100 µM (inactive) | > 100 µM (inactive) | > 100 µM (inactive) | > 100 µM (inactive) | > 100 µM (inactive) | > 10 µM (inactive) | > 100 µM (inactive) | > 100 µM (inactive) | > 100 µM (inactive) | > 100 µM (inactive) | > 100 | 60.3 µM (inactive) | 47.1 µM (inactive) | 95.5 µM (inactive) | > 100 µM (inactive)
C=C(Br)C[N+]12CN3CN(CN(C3)C1)C2 | > 100 µM (inactive) | > 100 µM (inactive) | > 100 µM (inactive) | > 100 µM (inactive) | > 100 µM (inactive) | > 100 µM (inactive) | > 100 µM (inactive) | > 100 µM (inactive) | > 100 µM (inactive) | > 100 µM (inactive) | > 100 µM (inactive) | > 100 µM (inactive) | > 100 µM (inactive) | > 100 µM (inactive) | > 100 µM (inactive) | > 100 | > 100 µM (inactive) | > 100 µM (inactive) | > 100 µM (inactive) | > 100 µM (inactive)
NCCC(N)C(=O)O (stereo not given) | > 100 µM (inactive) | > 100 µM (inactive) | > 100 µM (inactive) | > 100 µM (inactive) | > 100 µM (inactive) | > 100 µM (inactive) | > 100 µM (inactive) | > 100 µM (inactive) | > 100 µM (inactive) | > 100 µM (inactive) | > 100 µM (inactive) | > 100 µM (inactive) | > 100 µM (inactive) | > 100 µM (inactive) | > 100 µM (inactive) | > 100 | > 100 µM (inactive) | > 100 µM (inactive) | > 100 µM (inactive) | > 100 µM (inactive)
c1n[nH]cc1C12C3C4C5C3C1C5C42 (stereo not given) | > 100 µM (inactive) | > 100 µM (inactive) | > 100 µM (inactive) | > 100 µM (inactive) | > 100 µM (inactive) | > 100 µM (inactive) | 94.6 µM (inactive) | > 100 µM (inactive) | > 100 µM (inactive) | > 100 µM (inactive) | > 100 µM (inactive) | > 100 µM (inactive) | > 100 µM (inactive) | > 100 µM (inactive) | > 100 µM (inactive) | > 100 | > 100 µM (inactive) | > 100 µM (inactive) | > 100 µM (inactive) | > 100 µM (inactive)
CCOC(=O)C(=Cc1ccccc1Cl)C(=O)OCC | 2.03 µM (inactive) | 0.938 µM (active) | 2.89 µM (inactive) | 2.47 µM (inactive) | 2.9 µM (inactive) | 1.94 µM (inactive) | 1.88 µM (inactive) | 1.92 µM (inactive) | 1.57 µM (inactive) | 1.13 µM (inactive) | 0.705 µM (active) | 1.79 µM (inactive) | 0.558 µM (active) | 2.27 µM (inactive) | 1.32 µM (inactive) | 1.72 | 0.547 µM (active) | 1.61 µM (inactive) | 2.13 µM (inactive) | 1.56 µM (inactive)
